In PMC10634346 (Cancer Research Communications, 2023):

Assays:
Format in all cases: cell-based, human
[1] = test system: RNA polymerase II Ser2 phosphorylation (p-Ser2) in SU-DHL-4 cells; assay: In vitro washout, p-Ser2 Western blot, SU-DHL-4; conditions: 1 µmol/L, 4-hour treatment then washout
Procedure: (§1) Evaluation of the pharmacodynamic extent and duration of CDK9 inhibition were performed in vitro using the human DLBCL cell lines SU-DHL-4 and SU-DHL-10, harboring MYC amplification and MYC overexpression with P57T mutation, respectively. Cells were seeded 18 hours prior to treatment for 4 hours with one of three CDK9 inhibitors, enitociclib (0.25 and1 µmol/L), atuveciclib (1 µmol/L) or KB-0742 (1 µmol/L), cells were washed, and incubation continued until 48 hours posttreatment. Samples were collected before treatment (−4), immediately after treatment (0), and at 1, 2, 4, 8, 12, 16, 24, and 48 hours after washout for RNA sequencing (RNA-seq), qPCR, and Western blotting analyses.
(§2) The levels of p-Ser2, p-Ser5 and total RNA polymerase II, Myc, Mcl-1, cleaved PARP (cPARP), and cleaved Caspase 3 were assessed by Western blotting and quantified near-infrared detection and background corrected quantification of fluorescence intensity on an Odyssey Imaging System with IRDye secondary antibodies (LI-COR Biosciences). For quantification, the protein levels were normalized to GAPDH or HSP90, expressed as a ratio to DMSO or vehicle control at matched timepoints. The normalized relative protein levels of p-Ser2 were used for a treatment effect comparison by performing an ANOVA using PROC MIXED in SAS. The ANOVA model included treatment, timepoints and their interactions as fixed effects. The least square means (LSM), differences between the LSMs and associated P values were generated. The following primary antibodies were used: Rpb1 NTD (D8L4Y) rabbit antibody [Cell Signaling Technology (CST), #14958], anti-RNA polymerase II subunit B1 (phospho CTD Ser-2, clone 3E10) rat antibody (Merck, 04-1571-I), recombinant anti-c-MYC rabbit antibody (Y69; Abcam, #ab32072), MCL1 (D5V5L) rabbit antibody (CST, #39224), cleaved-PARP (Asp214) (E2T4K) mouse antibody (CST, #32563), HSP90 (C45G5) rabbit antibody (CST, #4877), and GAPDH mouse antibody (Zytomed Systems, #ZYT-RGM2-6C5).

[2] = test system: RNA polymerase II Ser2 phosphorylation (p-Ser2) in SU-DHL-10 cells; assay: In vitro washout, p-Ser2 Western blot, SU-DHL-10; conditions: 1 µmol/L, 4-hour treatment then washout
Procedure: as §1, §2

[3] = test system: cPARP in SU-DHL-10 cells; assay: In vitro washout, cPARP Western blot, SU-DHL-10; conditions: 1 µmol/L, 4 h treatment then washout
Procedure: as §1
(§3) The levels of p-Ser2, p-Ser5 and total RNA polymerase II, Myc, Mcl-1, cleaved PARP (cPARP), and cleaved Caspase 3 were assessed by Western blotting and quantified near-infrared detection and background corrected quantification of fluorescence intensity on an Odyssey Imaging System with IRDye secondary antibodies (LI-COR Biosciences). For quantification, the protein levels were normalized to GAPDH or HSP90, expressed as a ratio to DMSO or vehicle control at matched timepoints. The normalized relative protein levels of p-Ser2 were used for a treatment effect comparison by performing an ANOVA using PROC MIXED in SAS. The ANOVA model included treatment, timepoints and their interactions as fixed effects. […]

[4] = test system: SU-DHL-4 and SU-DHL-10 cell lines; assay: RNA-seq differential gene expression in DLBCL cell lines; conditions: for PHF23 and TP53RK by RNA-seq (in words): 1 µmol/L, 4 hours
Procedure: Evaluation of the pharmacodynamic extent and duration of CDK9 inhibition were performed in vitro using the human DLBCL cell lines SU-DHL-4 and SU-DHL-10, harboring MYC amplification and MYC overexpression with P57T mutation, respectively. Cells were seeded 18 hours prior to treatment for 4 hours with one of three CDK9 inhibitors, enitociclib (0.25 and1 µmol/L), atuveciclib (1 µmol/L) or KB-0742 (1 µmol/L), cells were washed, and incubation continued until 48 hours posttreatment. Samples were collected before treatment (−4), immediately after treatment (0), and at 1, 2, 4, 8, 12, 16, 24, and 48 hours after washout for RNA sequencing (RNA-seq), qPCR, and Western blotting analyses. Total RNA was extracted from blood of patients and cell lines using RNeasy Plus Mini Kit (QIAGEN, #74136) and cDNA prepared with the Maxima First Strand cDNA Synthesis Kit for RT-PCR (Thermo Fisher Scientific, K1642) according to manufacturer's instructions. The integrity of purified total RNA was evaluated using an Agilent 2100 Bioanalyzer system and RNA 6000 Nano Kit (Agilent, #5067-1511). Differential gene expression analysis was performed (Fios Genomics) from RNA-seq data (Discovery Life Sciences). MYC and MCL1 mRNA levels were measured by qPCR in vitro and in vivo, using a Taqman qPCR system (Thermo Fisher Scientific), TaqMan Fast Universal PCR Master Mix (2X) no AmpErase (#4352042) and TaqMan probes for MYC (Hs00153408_m1) and MCL1 (Hs03043899_m1). RNA-seq data were analyzed using DESeq2 ([35]). RNA-seq data generated from the analysis of two cell lines treated with the three CDK9 inhibitors was analyzed to investigate the differences in gene expression levels between various posttreatment timepoints and the pretreatment samples. Quality control assessment and exploratory data analysis by principal component analysis (PCA) were done on raw counts and on normalized count data. Normalization of RNA-seq count data was done using trimmed mean of M-values normalization and transformed with voom, resulting in log2 counts per million with associated precision weights. […] Significance values (Padj) were adjusted for multiple testing, by controlling the FDR using the Benjamini–Hochberg procedure. […] RNA-seq data generated from blood samples taken from patients before and after their first dose (C1D1) or after multiple doses, before and after their third dose (C1D15) were analyzed and normalized using the same pipeline as cell lines for comparisons.

[5] = test system: MCL1 mRNA in SU-DHL-10 cells; assay: In vitro washout, MCL1 mRNA qPCR, SU-DHL-10; conditions: 1 µmol/L 4 h then washout, maintained for up to 16 hours after treatment
Procedure: (§4) Evaluation of the pharmacodynamic extent and duration of CDK9 inhibition were performed in vitro using the human DLBCL cell lines SU-DHL-4 and SU-DHL-10, harboring MYC amplification and MYC overexpression with P57T mutation, respectively. Cells were seeded 18 hours prior to treatment for 4 hours with one of three CDK9 inhibitors, enitociclib (0.25 and1 µmol/L), atuveciclib (1 µmol/L) or KB-0742 (1 µmol/L), cells were washed, and incubation continued until 48 hours posttreatment. Samples were collected before treatment (−4), immediately after treatment (0), and at 1, 2, 4, 8, 12, 16, 24, and 48 hours after washout for RNA sequencing (RNA-seq), qPCR, and Western blotting analyses. Total RNA was extracted from blood of patients and cell lines using RNeasy Plus Mini Kit (QIAGEN, #74136) and cDNA prepared with the Maxima First Strand cDNA Synthesis Kit for RT-PCR (Thermo Fisher Scientific, K1642) according to manufacturer's instructions. The integrity of purified total RNA was evaluated using an Agilent 2100 Bioanalyzer system and RNA 6000 Nano Kit (Agilent, #5067-1511). Differential gene expression analysis was performed (Fios Genomics) from RNA-seq data (Discovery Life Sciences). MYC and MCL1 mRNA levels were measured by qPCR in vitro and in vivo, using a Taqman qPCR system (Thermo Fisher Scientific), TaqMan Fast Universal PCR Master Mix (2X) no AmpErase (#4352042) and TaqMan probes for MYC (Hs00153408_m1) and MCL1 (Hs03043899_m1). RNA-seq data were analyzed using DESeq2 ([35]).

[6] = test system: MYC mRNA in SU-DHL-10 cells; assay: In vitro washout, MYC mRNA qPCR, SU-DHL-10; conditions: 1 µmol/L 4 h then washout, maintained for up to 16 hours after treatment
Procedure: as §4

[7] = test system: Myc and Mcl-1 protein in SU-DHL-4 cells; assay: In vitro washout, Myc and Mcl-1 protein Western blot, SU-DHL-4; conditions: 0.25 µmol/L enitociclib, atuveciclib (1 µmol/L)
Procedure: as §1, §3

Structure (SMILES) | decrease of p-Ser2 levels [1] | duration of p-Ser2 decrease [1] | p-Ser2 inhibition (in words) [2] | effect on cPARP (in words) [3] | PHF23 and TP53RK by RNA-seq (in words) [4] | MCL1 mRNA by RNA-seq (in words) ([4]; 4 hours treatment, in vitro) | MYC mRNA by RNA-seq (in words) ([4]; 4 hours treatment, in vitro) | depletion of MCL1 mRNA levels [5] | depletion of MYC mRNA levels [6] | ZPF36 by RNA-seq (in words) ([4]; 4 hours treatment, in vitro) | sustained Myc and Mcl-1 protein depletion for 48 hours (in words) [7]
CCC(CC)c1cc(N[C@H]2CC[C@H](N)C2)n2nccc2n1 [KB-0742] | 50% | up to 12 hours | only in the presence of the treatment compound and not after washout | no effect | not | upregulated | not statistically significant | approximately 50% | approximately 50% | – | –
COc1cc(F)ccc1-c1ncnc(Nc2cccc(C[S@](C)(=N)=O)c2)n1 [atuveciclib, reference compound] | ~50% | up to 16 hours | only in the presence of the treatment compound and not after washout | – | not | downregulation is observed but not statistically significant | statistically significantly downregulated | approximately 50% | approximately 50% | significantly downmodulated | this was achieved
